Data on one molecule can be found in BindingDB's records for doi:10.1016/j.bmcl.2007.12.050 (Neurogen, 2008).

This test can be described thus: Antagonist activity at CRF1 receptor expressed in mouse AtT20 cells assessed as inhibition of sauvagine-stimulated cAMP accumulation.

pKi: −log10 of the molar value.

Regarding `CCCN(CCC)c1c(C)nc(-c2c(C)cc(C)cc2OC)c2ccccc12` [1-(2-methoxy-4,6-dimethylphenyl)-3-methyl-N,N-dipropylisoquinolin-4-amine], the pKi was 7.92.

The term pKi denotes the Ki on a negative log10 scale, so that one unit is a factor of ten.
